Laboratory results taken from patent US10544146B2, “Bicyclic compounds and their use as antibacterial agents and β-lactamase inhibitors” (priority 2011, dated 2020).

How the values were obtained:
Assay type in all cases: cell-based
E. coli JMI 2665 = test: MIC, antibacterial and synergistic activity; settings: substance alone
K. pneumo JMI 4106 = test: MIC, antibacterial and synergistic activity; settings: substance alone
E. coli JMI 4080 = test: MIC, antibacterial and synergistic activity; settings: substance alone
K. pneumo JMI 2681 = test: MIC, antibacterial and synergistic activity; settings: substance alone
[1] = system: metallo β-lactamase producing bacteria; test: MIC in combination with various antibiotics against metallo β-lactamase producing bacteria (Tables 10-12); settings: substance alone
Method: (§1) In the Tables 10-12, compounds of the present invention were tested in combination with various antibiotics against metallo β-lactamase producing bacteria.

E. coli JMI 10767 = test: MIC, antibacterial and synergistic activity; settings: substance alone
Method: as §1

P. aerug JMI 149 = test: MIC, antibacterial and synergistic activity; settings: substance alone
Method: as §1

A. baumanii JMI 2659 = test: MIC, antibacterial and synergistic activity; settings: substance alone
Method: as §1

E. coli JMI 2692 = test: MIC, antibacterial and synergistic activity; settings: substance alone
Method: as §1

E. coli JMI 2671 = test: MIC, antibacterial and synergistic activity; settings: substance alone
Method: as §1

K. pneumo JMI 2699 = test: MIC, antibacterial and synergistic activity; settings: substance alone
Method: as §1

E. cloacae JMI 36 = test: MIC, antibacterial and synergistic activity; settings: substance alone
Method: as §1

K. pneumo JMI 2697 = test: MIC, antibacterial and synergistic activity; settings: substance alone
Method: as §1

K. pneumo JMI 2693 = test: MIC, antibacterial and synergistic activity; settings: substance alone
Method: as §1

E. coli ATCC 25922 = test: MIC, antibacterial and synergistic activity
Method: as §1

P. aerug JMI 2686 = test: MIC, antibacterial and synergistic activity; settings: substance alone
E. coli JMI 10770 = test: MIC, antibacterial and synergistic activity; settings: substance alone
K. pneumo JMI 2674 = test: MIC, antibacterial and synergistic activity; settings: substance alone
K. pneumo JMI 4088 = test: MIC, antibacterial and synergistic activity; settings: substance alone
E. coli JMI 11103 = test: MIC, antibacterial and synergistic activity; settings: substance alone
K. pneumo JMI 4109 = test: MIC, antibacterial and synergistic activity; settings: substance alone
E. coli JMI 10768 = test: MIC, antibacterial and synergistic activity; settings: substance alone
E. coli JMI 4103 = test: MIC, antibacterial and synergistic activity; settings: substance alone
K. pneumo JMI 2673 = test: MIC, antibacterial and synergistic activity; settings: substance alone

Q: Which results are given for CC(C)(O/N=C(\C(=O)N[C@@H]1C(=O)N2C(C(=O)[O-])=C(C[n+]3ccccc3)CS[C@H]12)c1csc(N)n1)C(=O)O [Ceftazidime, ceftazidime]?
A: MIC alone (E. coli JMI 2665; E. coli JMI 2665, CMY-2 (Plasmid Cpase)): 8 µg/mL; MIC alone (E. coli JMI 2665; E. coli JMI 2665, enzyme CMY-2 (Plasmid Cpase)): 8 µg/mL; MIC alone (K. pneumo JMI 4106; K. pneumo JMI 4106, KPC-3, TEM-1, SHV-12, SHV-141): >512 µg/mL; MIC alone (K. pneumo JMI 4106; K. pneumo JMI 4106, enzyme KPC-3, TEM-1, SHV-12, SHV-141): >512 µg/mL; MIC alone (E. coli JMI 4080; E. coli JMI 4080, Tem-10): 64 µg/mL; MIC alone (E. coli JMI 4080; E. coli JMI 4080, enzyme Tem-10): 64 µg/mL; MIC alone (K. pneumo JMI 2681; K. pneumo JMI 2681, Oxa-48 (Cpase)): 512 µg/mL; MIC alone (K. pneumo JMI 2681; K. pneumo JMI 2681, enzyme Oxa-48 (Cpase)): 512 µg/mL; MIC alone ([1]; Citrobacter freundii isolate 49469, NDM-1): >256 µg/mL; MIC alone ([1]; Enterobacter aerogenes isolate 8397, VIM-1): >256 µg/mL; MIC alone ([1]; Enterobacter aerogenes isolate 47683, VIM-12): 256 µg/mL; MIC alone ([1]; Enterobacter cloacae isolate 4, VIM-6): 256 µg/mL; MIC alone ([1]; Enterobacter cloacae isolate 10, IMP-26): >256 µg/mL; MIC alone ([1]; Enterobacter cloacae isolate 25, IMP-4): >256 µg/mL; MIC alone ([1]; Enterobacter cloacae isolate 1068, VIM-2): 128 µg/mL; MIC alone ([1]; Enterobacter cloacae isolate 1280, VIM-5): 64 µg/mL; MIC alone ([1]; Enterobacter cloacae isolate 1471, VIM-1): >256 µg/mL; MIC alone ([1]; Enterobacter cloacae isolate 1874, IMP-21): 32 µg/mL; MIC alone ([1]; Enterobacter cloacae isolate 3686, IMP-1): >256 µg/mL; MIC alone ([1]; Enterobacter cloacae isolate 53477, NDM-1): >256 µg/mL; MIC alone ([1]; Escherichia coli isolate 13, IMP-1): 256 µg/mL; MIC alone ([1]; Escherichia coli isolate 17, NDM-1): >256 µg/mL; MIC alone ([1]; Escherichia coli isolate 49, NDM-1): >256 µg/mL; MIC alone ([1]; Escherichia coli isolate 53749, NDM-1): >256 µg/mL; MIC alone ([1]; Klebsiella oxytoca isolate 24825, IMP-26): >256 µg/mL; MIC alone ([1]; Klebsiella oxytoca isolate 31141, VIM-23): 128 µg/mL; MIC alone ([1]; Klebsiella pneumoniae isolate 16, VIM-5): >256 µg/mL; MIC alone ([1]; Klebsiella pneumoniae isolate 38, NDM-1): >256 µg/mL; MIC alone ([1]; Providencia stuartii isolate 26582, VIM-1): >256 µg/mL; MIC alone ([1]; Serratia marcescens isolate 35, IMP-4): 64 µg/mL; MIC alone ([1]; Serratia marcescens isolate 36098, IMP-19): 128 µg/mL; MIC alone (E. coli JMI 10767; E. coli JMI 10767, Wt): ≤1 µg/mL; MIC alone (E. coli JMI 10767; E. coli JMI 10767, enzyme Wt): ≤1 µg/mL; MIC alone (P. aerug JMI 149; P. aerug JMI 149, Bla+++D+): 256 µg/mL; MIC alone (P. aerug JMI 149; P. aerug JMI 149, enzyme Bla+++D+): 256 µg/mL; MIC alone (A. baumanii JMI 2659; A. baumanii JMI 2659, Ges-14 (Cpase)): 512 µg/mL; MIC alone (A. baumanii JMI 2659; A. baumanii JMI 2659, enzyme Ges-14 (Cpase)): 512 µg/mL; MIC alone (E. coli JMI 2692; E. coli JMI 2692, NDM-1, TEM-1, CTX-M-15): >512 µg/mL; MIC alone (E. coli JMI 2692; E. coli JMI 2692, enzyme NDM-1, TEM-1, CTX-M-15): >512 µg/mL; MIC alone (E. coli JMI 2671; E. coli JMI 2671, VIM-19 (Cpase)): 64 µg/mL; MIC alone (E. coli JMI 2671; E. coli JMI 2671, enzyme VIM-19 (Cpase)): 64 µg/mL; MIC alone (K. pneumo JMI 2699; K. pneumo JMI 2699, VIM-1, CTX-M3): >512 µg/mL; MIC alone (K. pneumo JMI 2699; K. pneumo JMI 2699, enzyme VIM-1, CTX-M3): >512 µg/mL; MIC alone (E. cloacae JMI 36; E. cloacae JMI 36, P99): 128 µg/mL; MIC alone (E. cloacae JMI 36; E. cloacae JMI 36, enzyme P99): 128 µg/mL; MIC alone (K. pneumo JMI 2697; K. pneumo JMI 2697, IMP-4 (Cpase)): >512 µg/mL; MIC alone (K. pneumo JMI 2697; K. pneumo JMI 2697, enzyme IMP-4 (Cpase)): >512 µg/mL; MIC alone (K. pneumo JMI 2693; K. pneumo JMI 2693, NDM-1 (Cpase)): >512 µg/mL; MIC alone (K. pneumo JMI 2693; K. pneumo JMI 2693, enzyme NDM-1 (Cpase)): >512 µg/mL; MIC alone (E. coli ATCC 25922; E. coli ATCC 25922, enzyme Wt; substance alone): 0.25 µg/mL; MIC alone (E. coli ATCC 25922; E. coli ATCC 25922; enzyme Wt; substance alone): 0.25 µg/mL; MIC alone (P. aerug JMI 2686; P. aerug JMI 2686, KPC-2 (Cpase)): 512 µg/mL; MIC alone (P. aerug JMI 2686; P. aerug JMI 2686, enzyme KPC-2 (Cpase)): 512 µg/mL; MIC alone (E. coli JMI 10770; E. coli JMI 10770, CTX-M15 (Hyper ESBL)): 64 µg/mL; MIC alone (E. coli JMI 10770; E. coli JMI 10770, enzyme CTX-M15 (Hyper ESBL)): 64 µg/mL; MIC alone (K. pneumo JMI 2674; K. pneumo JMI 2674, CTX-M15 (ESBL)): 512 µg/mL; MIC alone (K. pneumo JMI 2674; K. pneumo JMI 2674, enzyme CTX-M15 (ESBL)): 512 µg/mL; MIC alone (K. pneumo JMI 4088; K. pneumo JMI 4088, KPC-3 (Cpase)): >512 µg/mL; MIC alone (K. pneumo JMI 4088; K. pneumo JMI 4088, enzyme KPC-3 (Cpase)): >512 µg/mL; MIC alone (E. coli JMI 11103; E. coli JMI 11103, CTX-M15 (Intermediate ESBL)): 32 µg/mL; MIC alone (E. coli JMI 11103; E. coli JMI 11103, enzyme CTX-M15 (Intermediate ESBL)): 32 µg/mL; MIC alone (K. pneumo JMI 4109; K. pneumo JMI 4109, SHV-1, SHV-12): 8 µg/mL; MIC alone (K. pneumo JMI 4109; K. pneumo JMI 4109, enzyme SHV-1, SHV-12): 8 µg/mL; MIC alone (E. coli JMI 10768; E. coli JMI 10768, CTX-M15 (Weak ESBL)): 8 µg/mL; MIC alone (E. coli JMI 10768; E. coli JMI 10768, enzyme CTX-M15 (Weak ESBL)): 8 µg/mL; MIC alone (E. coli JMI 4103; E. coli JMI 4103, KPC-2, Tem-1, CMY-Type): >512 µg/mL; MIC alone (E. coli JMI 4103; E. coli JMI 4103, enzyme KPC-2, Tem-1, CMY-Type): >512 µg/mL; MIC alone (K. pneumo JMI 2673; K. pneumo JMI 2673, CTX-M14 (ESBL)): 32 µg/mL; MIC alone (K. pneumo JMI 2673; K. pneumo JMI 2673, enzyme CTX-M14 (ESBL)): 32 µg/mL
